Laboratory results: patent US20230159527A1, “COMPOUNDS AS BCL-2 INHIBITORS” (Fochon Pharmaceuticals, Ltd., priority 2020, published 2023)

Each compound was assayed on Toledo cells (assay: Cell proliferation assay, Toledo cells (MTS, 72 h)). Settings: Homo sapiens, Toledo cells, MTS, read-out: Toledo IC50.
Type: cell-based
Experimental: MTS testing kit was purchased from Promega (Madison, Wis., USA). The RPMI-1640, Fetal bovine serum and Penicillin-Streptomycin were purchased from BI (Biological Industries, Beit Haemek, Israel). Dimethyl sulfoxide (DMSO) was purchased from Sigma (St. Louis, Mo., USA). Toledo (ATCC catalog #: CRL-2631) cells were cultured in RPMI-1640 supplemented with Penicillin-Streptomycin and 10% FBS.
To investigate whether a compound is able to inhibit the activity of BCL-2 in cells, a mechanism-based assay using Toledo lines was developed. In this assay, the inhibition of BCL-2 was reflected by the inhibition of cell proliferation of Toledo cells. Cells were plated into 96-well plates at the optimized cell density of 30000 cells/well. Plates were incubated at 37° C., with 5% CO2 for 4h. Compounds were serially diluted and added to the plates with the final concentrations of 10000, 3333.3, 1111.1, 370.4, 123.5, 41.2, 13.7, 4.6 and 1.5 nM. Plates were incubated at 37° C., with 5% CO2 for 72 h. 20 μl MTS was added into each well and the plates were incubated at 37° C., with 5% CO2 for exactly 2 h. The absorbance was measured by a microplate reader at 490 nm. IC50 was calculated using GraphPad Prism 5.0 software.

Compound	IC50
CC(C)c1ccccc1[C@@H]1CCCN1C1CC2(CCN(c3ccc(C(=O)NS(=O)(=O)c4cc5c(c([N+](=O)[O-])c4)N[C@@H]([C@H]4CC[C@](C)(O)CC4)CO5)c(Oc4cc5c(F)c[nH]c5nc4OC[C@H](C)O)c3)CC2)C1 (single isomer, unassigned) [Example D-221, 2-((3-fluoro-6-((S)-2-hydroxypropoxy)-1H-pyrrolo[2,3-b]pyridin-5-yl)oxy)-N-(((S)-3-((1r,4S)-4-hydroxy-4-methylcyclohexyl)-5-nitro-3,4-dihydro-2H-benzo[b][1,4]oxazin-7-yl)sulfonyl)-4-(2-((R or S)-2-(2-isopropylphenyl)pyrrolidin-1-yl)-7-azaspiro[3.5]nonan-7-yl)benzamide]	1 nM
CC(C)c1ccccc1[C@@H]1CCC[C@@H]1N1CC2(CCN(c3ccc(C(=O)NS(=O)(=O)c4cnc(NC[C@H]5CC[C@](C)(O)CC5)c([N+](=O)[O-])c4)c(Oc4cc5cc[nH]c5nc4OC4COC4)c3)CC2)C1 (single isomer, unassigned) [Example A-162, N-((6-((((1r,4r)-4-hydroxy-4-methyl-cyclohexyl)methyl)amino)-5-nitro-pyridin-3-yl)sulfonyl)-4-(2-((1S,2S or 1R,2R)-2-(2-isopropylphenyl)cyclo-pentyl)-2,7-diazaspiro[3.5]nonan-7-yl)-2-((6-(oxetan-3-yloxy)-1H-pyrrolo [2,3-b]pyridin-5-yl)oxy)benzamide]	1 nM
CC(C)c1ccccc1[C@@H]1CCCN1C1CC2(CCN(c3ccc(C(=O)NS(=O)(=O)c4cc5c(c([N+](=O)[O-])c4)S[C@@H]([C@H]4CC[C@](C)(O)CC4)CO5)c(Oc4cnc5[nH]cc(F)c5c4)c3)CC2)C1 (single isomer, unassigned) [Example E-2, 2-((3-fluoro-1H-pyrrolo[2,3-b]pyridin-5-yl)oxy)-N-(((S)-3-((1r,4S)-4-hydroxy-4-methylcyclohexyl)-5-nitro-2,3-dihydrobenzo[b][1,4]oxathiin-7-yl)sulfonyl)-4-(2-((R or S)-2-(2-isopropylphenyl)pyrrolidin-1-yl)-7-azaspiro[3.5]nonan-7-yl)benzamide]	1 nM
CC(C)c1ccccc1[C@@H]1COCCN1C1CC2(CCN(c3ccc(C(=O)NS(=O)(=O)c4cnc(NC[C@H]5CC[C@](C)(O)CC5)c([N+](=O)[O-])c4)c(Oc4cc5cc[nH]c5nc4OC(F)F)c3)CC2)C1 (single isomer, unassigned) [Example A-126, 2-((6-(difluoromethoxy)-1H-pyrrolo [2,3-b]pyridin-5-yl)oxy)-N-((6-((((1r,4r)-4-hydroxy-4-methylcyclo-hexyl)methyl)amino)-5-nitropyridin-3-yl)sulfonyl)-4-(2-((R or S)-3-(2-isopropylphenyl)morpholino)-7-azaspiro[3.5]nonan-7-yl) benzamide]	1 nM
COc1nc2[nH]ccc2cc1Oc1cc(N2CCC3(CC2)CC(N2CCOC[C@H]2c2ccccc2C(C)C)C3)ccc1C(=O)NS(=O)(=O)c1cnc(NC[C@H]2CC[C@](C)(O)CC2)c([N+](=O)[O-])c1 (single isomer, unassigned) [Example A-125, N-((6-((((1r,4r)-4-hydroxy-4-methyl-cyclohexyl)methyl)amino)-5-nitropyridin-3-yl)sulfonyl)-4-(2-((R or S)-3-(2-isopropylphenyl)morpholino)-7-azaspiro[3.5]nonan-7-yl)-2-((6-methoxy-1H-pyrrolo[2,3-b]pyridin-5-yl)oxy)benzamide]	2 nM
CC(C)c1ccccc1[C@@H]1CCCN1C1CC2(CCN(c3ccc(C(=O)NS(=O)(=O)c4cc5c(c([N+](=O)[O-])c4)N[C@@H](C4CCOCC4)CO5)c(Oc4cnc5[nH]cc(F)c5c4)c3)CC2)C1 (single isomer, unassigned) [Example D-48, 2-((3-fluoro-1H-pyrrolo[2,3-b]pyridin-5-yl)oxy)-4-(2-((R or S)-2-(2-isopropylphenyl)pyrrolidin-1-yl)-7-azaspiro[3.5]nonan-7-yl)-N-(((S)-5-nitro-3-(tetrahydro-2H-pyran-4-yl)-3,4-dihydro-2H-benzo[b][1,4]oxazin-7-yl)sulfonyl) benzamide]	1 nM
CC(C)c1ccccc1[C@@H]1CCCN1C1CC2(CCN(c3ccc(C(=O)NS(=O)(=O)c4cc5c(c([N+](=O)[O-])c4)N[C@@H]([C@H]4CC[C@](C)(O)CC4)CO5)c(Oc4cc5cc[nH]c5nc4OCC(F)(F)F)c3)CC2)C1 (single isomer, unassigned) [Example D-58, N-(((S)-3-((1r,4S)-4-hydroxy-4-methylcyclohexyl)-5-nitro-3,4-dihydro-2H-benzo[b][1,4]oxazin-7-yl)sulfonyl)-4-(2-((R or S)-2-(2-isopropylphenyl)pyrrolidin-1-yl)-7-azaspiro[3.5]nonan-7-yl)-2-((6-(2,2,2-trifluoroethoxy)-1H-pyrrolo[2,3-b]pyridin-5-yl)oxy) benzamide]	1 nM
CC(C)c1ccccc1[C@@H]1CCC[C@@H]1N1CC2(CCN(c3ccc(C(=O)NS(=O)(=O)c4cc5c(c([N+](=O)[O-])c4)N[C@@H]([C@H]4CC[C@](C)(O)CC4)CO5)c(Oc4cc5cc[nH]c5nc4OC[C@@H]4COCCO4)c3)CC2)C1 (single isomer, unassigned) [Example D-258, 2-((6-(((S)-1,4-dioxan-2-yl)methoxy)-1H-pyrrolo[2,3-b]pyridin-5-yl)oxy)-N-((S)-3-((1r,4S)-4-hydroxy-4-methylcyclohexyl)-5-nitro-3,4-dihydro-2H-benzo[b][1,4]oxazin-7-yl)sulfonyl)-4-(2-((1S,2S or 1R,2R)-2-(2-isopropylphenyl)cyclopentyl)-2,7-diazaspiro[3.5] nonan-7-yl)benzamide]	1 nM
CC(C)c1ccccc1[C@@H]1COCCN1C1CC2(CCN(c3ccc(C(=O)NS(=O)(=O)c4cnc(NC[C@H]5CC[C@](C)(O)CC5)c([N+](=O)[O-])c4)c(Oc4cnc5[nH]ccc5c4)n3)CC2)C1 (single isomer, unassigned) [Example A-145, 2-((1H-pyrrolo[2,3-b]pyridin-5-yl)oxy)-N-((6-((((1r,4r)-4-hydroxy-4-methylcyclohexyl)methyl)amino)-5-nitropyridin-3-yl)sulfonyl)-6-(2-((R or S)-3-(2-isopropylphenyl)morpholino)-7-azaspiro[3.5]nonan-7-yl)nicotina-mide]	1 nM
COCCOc1nc2[nH]ccc2cc1Oc1cc(N2CCC3(CC2)CN([C@H]2CCC[C@H]2c2ccccc2C(C)C)C3)ccc1C(=O)NS(=O)(=O)c1ccc(NC[C@H]2CC[C@](C)(O)CC2)c([N+](=O)[O-])c1 (racemic) [Example D-76, N-((4-((((1r,4r)-4-hydroxy-4-methylcyclohexyl)methyl)amino)-3-nitrophenyl)sulfonyl)-4-(2-((1S,2S and 1R,2R)-2-(2-isopropylphenyl)cyclopentyl)-2,7-diazaspiro[3.5]nonan-7-yl)-2-((6-(2-methoxyethoxy)-1H-pyrrolo[2,3-b]pyridin-5-yl)oxy)benzamide]	1 nM
CC(C)c1ccccc1[C@@H]1CCCN1C1CC2(CCN(c3ccc(C(=O)NS(=O)(=O)c4cc5c(c([N+](=O)[O-])c4)N[C@@H]([C@H]4CC[C@](C)(O)CC4)CO5)c(Oc4cc5cc[nH]c5nc4OC[C@H](C)O)c3)CC2)C1 (single isomer, unassigned) [Example D-70, N-(((S)-3-((1r,4S)-4-hydroxy-4-methylcyclohexyl)-5-nitro-3,4-dihydro-2H-benzo[b][1,4]oxazin-7-yl)sulfonyl)-2-((6-((S)-2-hydroxypropoxy)-1H-pyrrolo[2,3-b]pyridin-5-yl)oxy)-4-(2-((R or S)-2-(2-isopropylphenyl)pyrrolidin-1-yl)-7-azaspiro[3.5]nonan-7-yl)benzamide]	1 nM
CC(C)c1ccccc1[C@@H]1CCCN1C1CC2(CCN(c3ccc(C(=O)NS(=O)(=O)c4cc5c(c([N+](=O)[O-])c4)N[C@@H]([C@H]4CC[C@](C)(O)CC4)CO5)c(Oc4cc5cc[nH]c5nc4OC4CC4)c3)CC2)C1 (single isomer, unassigned) [Example D-67, 2-((6-cyclopropoxy-1H-pyrrolo[2,3-b]pyridin-5-yl)oxy)-N-(((S)-3-((1r,4S)-4-hydroxy-4-methylcyclohexyl)-5-nitro-3,4-dihydro-2H-benzo [b][1,4]oxazin-7-yl)sulfonyl)-4-(2-((R or S)-2-(2-isopropylphenyl)pyrrolidin-1-yl)-7-azaspiro[3.5]nonan-7-yl)benzamide]	1 nM

Same assay, conditions: Homo sapiens, Toledo, read-out: Toledo IC50 (nM)

Compound	IC50
CC(C)c1ccccc1[C@@H]1COCCN1C1CC2(CCN(c3ccc(C(=O)NS(=O)(=O)c4ccc(NC[C@H]5CC[C@](C)(O)CC5)c([N+](=O)[O-])n4)c(Oc4cnc5[nH]ccc5c4)c3)CC2)C1 (single isomer, unassigned) [Example C-1, 2-((1H-pyrrolo[2,3-b]pyridin-5-yl)oxy)-N-((5-((((1r,4r)-4-hydroxy-4-methylcyclohexyl)methyl)amino)-6-nitropyridin-2-yl)sulfonyl)-4-(2-((R or S)-3-(2-isopropylphenyl)morpholino)-7-azaspiro[3.5]nonan-7-yl) benzamide]	1 nM

Same assay, conditions: Toledo cells, MTS, read-out: Toledo IC50

Compound	IC50
N-(((S)-3-((1r,4S)-4-hydroxy-4- methylcyclohexyl)-5-nitro-3,4- dihydro-2H-benzo[b][1,4]oxazin-7- yl)sulfonyl)-4-(2-((R or S)- 2-(2-isopropylphenyl)pyrrolidin- 1-yl)-7-azaspiro[3.5]nonan-7- yl)-2-((6-(((R)-tetrahydrofuran-3- yl)oxy)-1H-pyrrolo[2,3-b]pyridin- 5-yl)oxy)benzamide [Example D-73]	1 nM
